{
  "source": "patent US9820481B2",
  "about": "“Encapsulation of active ingredients and method of making” (Arch Chemicals, Inc., priority 2013, dated 2017)",
  "assay": "Degradation temperature by thermal gravimetric analysis (TGA) or differential scanning calorimetry (DSC)",
  "format": "physicochemical",
  "description": "The degradation temperature was determined by thermal gravimetric analysis (TGA) or differential scanning calorimetry (DSC).",
  "data": [
    {"substance": "zinc pyrithione [A (comp)]", "values": [
      {"measurement": "Degradation Temp", "result": 265, "unit": "°C"}
    ]}
  ]
}
